Data: patent US4542137A, “Alkylaminodesoxy-1.4;3.6-dianhydrohexitol nitrates substituted by purine bases and pharmaceutical compositions” (priority 1980, dated 1985)

System: mongrel dogs
Test: circulatory pharmacological effectiveness on narcotised dogs, intravenous
Assay type: in vivo, dog
[1] = dog i.v. ISDN/9c 1, 1d 0.5 mg/kg, 40 min
[2] = dog i.v. ISDN/9c 1, 1d 0.5 mg/kg, 50 min
[3] = dog i.v. ISDN/9c 1, 1d 0.5 mg/kg, 60 min
[4] = dog i.v. ISDN/9c 1, 1d 0.5 mg/kg, 90 min
[5] = dog i.v. ISDN/9c 1, 1d 0.5 mg/kg, 120 min
[6] = dog i.v. ISDN/9c 1, 1d 0.5 mg/kg, 150 min
[7] = dog i.v. ISDN/9c 1, 1d 0.5 mg/kg, 180 min
[8] = dog i.v., before administration (v)

CN(CCCn1cnc2c1c(=O)n(C)c(=O)n2C)[C@H]1CO[C@H]2[C@@H]1OC[C@@H]2O[N+](=O)[O-] [Example 9c, 5-[N-Methyl-N-(3-theophyllin-7-ylpropyl)-amino]-5-desoxy-1.4;3.6-dianhydro-L-iditol 2-nitrate]
BFFem: blood flow in the A. femoralis referred to 20 kg body weight [1]: 44.2 mL/min
HLL: heart capacity left, referred to 20 kg body weight [1]: 0.60 W
HLR: heart capacity right, referred to 20 kg body weight [1]: 63.2 mW
HZV: heart minute volume, referred to 20 kg body weight [1]: 2.71 L/min
LVEDP: end diastolic pressure in the left ventricle [1]: 5.62 mm.Hg
SV: beat volume, referred to 20 kg body weight [1]: 24.9 mL
WAP: pulmonalis resistance, referred to 20 kg body weight [1]: 0.30 U
WFem: moralis resistance, referred to 20 kg body weight [1]: 0.32 KU
WTP: total peripheral resistance, referred to 20 kg body weight [1]: 5.05 U
dp/dt: rate of pressure increase in the left ventricle [1]: 2203.1 mm.Hg/sec
APdiast: diastolic aorta pressure [2]: 88.2 mm.Hg
APsyst: systolic aorta pressure [2]: 142.5 mm.Hg
BFFem: blood flow in the A. femoralis referred to 20 kg body weight [2]: 26.6 mL/min
HF: heart frequency [2]: 105.5
HLL: heart capacity left, referred to 20 kg body weight [2]: 0.61 W
HLR: heart capacity right, referred to 20 kg body weight [2]: 61.7 mW
HZV: heart minute volume, referred to 20 kg body weight [2]: 2.68 L/min
LVEDP: end diastolic pressure in the left ventricle [2]: 6.19 mm.Hg
SV: beat volume, referred to 20 kg body weight [2]: 25.5 mL
WFem: moralis resistance, referred to 20 kg body weight [2]: 0.31 KU
WTP: total peripheral resistance, referred to 20 kg body weight [2]: 5.24 U
dp/dt: rate of pressure increase in the left ventricle [2]: 2165.6 mm.Hg/sec
APdiast: diastolic aorta pressure [3]: 88.2 mm.Hg
APsyst: systolic aorta pressure [3]: 144.7 mm.Hg
BFFem: blood flow in the A. femoralis referred to 20 kg body weight [3]: 45.8 mL/min
HF: heart frequency [3]: 103.2
HLL: heart capacity left, referred to 20 kg body weight [3]: 0.59 W
HLR: heart capacity right, referred to 20 kg body weight [3]: 59.1 mW
HZV: heart minute volume, referred to 20 kg body weight [3]: 2.59 L/min
SV: beat volume, referred to 20 kg body weight [3]: 25.1 mL
WAP: pulmonalis resistance, referred to 20 kg body weight [3]: 0.27 U
WFem: moralis resistance, referred to 20 kg body weight [3]: 0.32 KU
WTP: total peripheral resistance, referred to 20 kg body weight [3]: 5.48 U
dp/dt: rate of pressure increase in the left ventricle [3]: 2109.4 mm.Hg/sec
APdiast: diastolic aorta pressure [4]: 90.9 mm.Hg
APsyst: systolic aorta pressure [4]: 148.1 mm.Hg
BFFem: blood flow in the A. femoralis referred to 20 kg body weight [4]: 41.7 mL/min
HF: heart frequency [4]: 98.0
HLL: heart capacity left, referred to 20 kg body weight [4]: 0.56 W
HLR: heart capacity right, referred to 20 kg body weight [4]: 59.2 mW
HZV: heart minute volume, referred to 20 kg body weight [4]: 2.42 L/min
SV: beat volume, referred to 20 kg body weight [4]: 24.8 mL
WAP: pulmonalis resistance, referred to 20 kg body weight [4]: 0.33 U
WFem: moralis resistance, referred to 20 kg body weight [4]: 0.36 KU
WTP: total peripheral resistance, referred to 20 kg body weight [4]: 6.00 U
dp/dt: rate of pressure increase in the left ventricle [4]: 1987.5 mm.Hg/sec
APdiast: diastolic aorta pressure [5]: 90.9 mm.Hg
APsyst: systolic aorta pressure [5]: 150.0 mm.Hg
BFFem: blood flow in the A. femoralis referred to 20 kg body weight [5]: 39.9 mL/min
HF: heart frequency [5]: 96.7
HLL: heart capacity left, referred to 20 kg body weight [5]: 0.55 W
HLR: heart capacity right, referred to 20 kg body weight [5]: 60.8 mW
HZV: heart minute volume, referred to 20 kg body weight [5]: 2.39 L/min
LVEDP: end diastolic pressure in the left ventricle [5]: 7.73 mm.Hg
SV: beat volume, referred to 20 kg body weight [5]: 24.7 mL
WAP: pulmonalis resistance, referred to 20 kg body weight [5]: 0.35 U
WFem: moralis resistance, referred to 20 kg body weight [5]: 0.38 KU
WTP: total peripheral resistance, referred to 20 kg body weight [5]: 6.07 U
dp/dt: rate of pressure increase in the left ventricle [5]: 1837.5 mm.Hg/sec
APdiast: diastolic aorta pressure [6]: 88.7 mm.Hg
APsyst: systolic aorta pressure [6]: 148.7 mm.Hg
BFFem: blood flow in the A. femoralis referred to 20 kg body weight [6]: 39.0 mL/min
HF: heart frequency [6]: 98.2
HLL: heart capacity left, referred to 20 kg body weight [6]: 0.54 W
HLR: heart capacity right, referred to 20 kg body weight [6]: 64.4 mW
HZV: heart minute volume, referred to 20 kg body weight [6]: 2.38 L/min
LVEDP: end diastolic pressure in the left ventricle [6]: 7.87 mm.Hg
SV: beat volume, referred to 20 kg body weight [6]: 24.3 mL
WAP: pulmonalis resistance, referred to 20 kg body weight [6]: 0.40 U
WFem: moralis resistance, referred to 20 kg body weight [6]: 0.37 KU
WTP: total peripheral resistance, referred to 20 kg body weight [6]: 5.92 U
dp/dt: rate of pressure increase in the left ventricle [6]: 1809.4 mm.Hg/sec
APdiast: diastolic aorta pressure [7]: 87.2 mm.Hg
APsyst: systolic aorta pressure [7]: 148.1 mm.Hg
BFFem: blood flow in the A. femoralis referred to 20 kg body weight [7]: 42.8 mL/min
HF: heart frequency [7]: 100.0
HLL: heart capacity left, referred to 20 kg body weight [7]: 0.55 W
HLR: heart capacity right, referred to 20 kg body weight [7]: 67.5 mW
HZV: heart minute volume, referred to 20 kg body weight [7]: 2.47 L/min
LVEDP: end diastolic pressure in the left ventricle [7]: 7.87 mm.Hg
SV: beat volume, referred to 20 kg body weight [7]: 24.8 mL
WAP: pulmonalis resistance, referred to 20 kg body weight [7]: 0.41 U
WFem: moralis resistance, referred to 20 kg body weight [7]: 0.33 KU
WTP: total peripheral resistance, referred to 20 kg body weight [7]: 5.61 U
dp/dt: rate of pressure increase in the left ventricle [7]: 1743.7 mm.Hg/sec
APdiast: diastolic aorta pressure [8]: 78.7 mm.Hg
APsyst: systolic aorta pressure [8]: 147.2 mm.Hg
BFFem: blood flow in the A. femoralis referred to 20 kg body weight [8]: 48.0 mL/min
HF: heart frequency [8]: 102.5
HLL: heart capacity left, referred to 20 kg body weight [8]: 0.56 W
HLR: heart capacity right, referred to 20 kg body weight [8]: 63.08 mW
HZV: heart minute volume, referred to 20 kg body weight [8]: 2.62 L/min
PAP: average pressure in the A. pulmonalis [8]: 13.6 mm.Hg
WFem: moralis resistance, referred to 20 kg body weight [8]: 0.29 KU
WTP: total peripheral resistance, referred to 20 kg body weight [8]: 5.15 U
dp/dt: rate of pressure increase in the left ventricle [8]: 1837.5 mm.Hg/sec
BFFem: blood flow in the A. femoralis referred to 20 kg body weight (dog, in vivo): 41.9 mL/min
PRV: pressure in the right atrium (dog, in vivo, iv): 3.0
LVEDP: end diastolic pressure in the left ventricle (iv): 7.60 mm.Hg
SV: beat volume, referred to 20 kg body weight (iv): 25.9 mL
WAP: pulmonalis resistance, referred to 20 kg body weight (iv): 0.29 U
